This is an account of results in PMC11680386 (Viruses, 2024).

One series addresses DENV-2 NS2B-NS3 protease (Dengue virus type 2, UniProt P29990). Nature of the series: Trans-cleavage FRET assay with DENV-2 NS2B-NS3 protease. It counts as cell-based. Particulars: for inhibition at 10 µM: read-out: Reduction of DENV-2 NS2B-NS3 protease activity.
A further series can be described thus: MTT cytotoxicity assay. The following applies: African green monkey, Vero E6 cells. It counts as cell-based, African green monkeys. On the technique in general: Formazan colour is commonly taken as a measure of viable cells.
In another series the test system is DENV-2. Nature of the series: Time-of-addition/removal assay with DENV-2. It counts as cell-based. The following applies: Dengue virus, DENV2; compound applied 2 h after infection, 18 h incubation; read-out: EC50 for viral infectivity, post-entry treatment.
For series [1], the system named is DENV-2 strain 16681. Kind of series: In vitro infectivity assay (NS4B immunofluorescence/DAPI) in Vero E6 cells. Particulars: for EC50: Dengue virus, DENV2, Vero C1008, 96 h, read-out: Inhibition of DENV-2 Infectivity (EC50, μM); for Selectivity Index (CC50/EC50): CC50 Vero E6 / EC50 infectivity. It counts as cell-based.
The test system of series [2] is DENV-2 strain 16681. Kind of series: Virus yield assay (TCID50). It counts as cell-based. Particulars: Dengue virus, DENV2, 96 h post-treatment.
Setting [3] is: trans-cleavage FRET assay, cells expressing CFP-trrg-YFP transfected with DENV-2 NS2B-NS3.

The CC50 is the concentration that lowers cell viability or growth by half. For orientation: EC50 means the concentration that produces a half-maximal response. In general, IC50 refers to the concentration that gives 50% inhibition.

Sequence of DENV-2 NS2B-NS3 protease (P29990 1476-2093): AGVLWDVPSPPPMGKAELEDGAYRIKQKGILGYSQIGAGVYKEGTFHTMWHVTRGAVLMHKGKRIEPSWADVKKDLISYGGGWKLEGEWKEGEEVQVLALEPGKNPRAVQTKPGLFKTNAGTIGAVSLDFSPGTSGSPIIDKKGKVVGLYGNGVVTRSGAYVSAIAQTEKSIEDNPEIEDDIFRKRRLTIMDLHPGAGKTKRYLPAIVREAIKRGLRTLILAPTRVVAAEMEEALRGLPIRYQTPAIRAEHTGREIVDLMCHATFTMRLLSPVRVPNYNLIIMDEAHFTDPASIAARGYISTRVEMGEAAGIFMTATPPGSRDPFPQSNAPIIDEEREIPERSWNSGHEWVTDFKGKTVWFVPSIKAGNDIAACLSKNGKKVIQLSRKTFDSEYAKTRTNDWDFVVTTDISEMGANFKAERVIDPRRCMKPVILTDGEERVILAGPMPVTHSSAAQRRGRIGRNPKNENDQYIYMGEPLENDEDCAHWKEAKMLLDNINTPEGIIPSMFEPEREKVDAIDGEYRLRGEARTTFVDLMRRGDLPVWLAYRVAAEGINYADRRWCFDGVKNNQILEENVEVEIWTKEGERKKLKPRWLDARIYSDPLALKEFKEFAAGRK
Sequence of DENV-2 NS2B-NS3 protease (P29990 1346-1475): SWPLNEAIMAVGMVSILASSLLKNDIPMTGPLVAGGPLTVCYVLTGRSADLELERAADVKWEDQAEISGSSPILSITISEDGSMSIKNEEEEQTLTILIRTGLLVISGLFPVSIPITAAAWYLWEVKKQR

On to `CC1(C)[C@@H](O[C@H]2O[C@H](C(=O)O)[C@@H](O)[C@H](O)[C@H]2O[C@@H]2O[C@H](C(=O)O)[C@@H](O)[C@H](O)[C@H]2O)CC[C@]2(C)[C@H]3C(=O)C=C4[C@@H]5C[C@@](C)(C(=O)O)CC[C@]5(C)CC[C@@]4(C)[C@]3(C)CC[C@@H]12` [Compound 1, Glycyrrhizic acid, reference compound], for which, at DENV-2 NS2B-NS3 protease (setting [3]), the “NS2B-NS3 Protease (IC50, μM)” value is “no inhibitory effect”.
With `CCOC(=O)C(Cc1ccccc1)NC(=O)C1OC(OC2C(OC3CCC4(C)C(CCC5(C)C4C(=O)C=C4C6CC(C)(C(=O)NC(Cc7ccccc7)C(=O)OCC)CCC6(C)CCC45C)C3(C)C)OC(C(=O)NC(Cc3ccccc3)C(=O)OCC)C(O)C2O)C(O)C(O)C1O` (stereo not shown) [Compound 8], on DENV-2 NS2B-NS3 protease, the inhibition at 10 µM is greater than 20%.
On to `COC(=O)CCC(NC(=O)C1OC(OC2C(OC3CCC4(C)C(CCC5(C)C4C(=O)C=C4C6CC(C)(C(=O)O)CCC6(C)CCC45C)C3(C)C)OC(C(=O)NC(CCC(=O)OC)C(=O)OC)C(O)C2O)C(O)C(O)C1O)C(=O)OC` (stereo not shown) [Compound 11], for which the CC50 at 96 h in the series “MTT cytotoxicity assay” is greater than 100 µM. For the same molecule, the EC50 in the series with DENV-2 came to 5 nM; in the series with DENV-2 strain 16681 [1] it was 0.034 ± 0.001 µM; in the series on DENV-2 strain 16681 [2] it was 42 nM. In addition, the inhibition at 10 µM on DENV-2 NS2B-NS3 protease was greater than 20%.
Take `COC(=O)C(CCC(=O)O)NC(=O)C1OC(OC2C(OC3CCC4(C)C(CCC5(C)C4C(=O)C=C4C6CC(C)(C(=O)O)CCC6(C)CCC45C)C3(C)C)OC(C(=O)NC(CCC(=O)O)C(=O)OC)C(O)C2O)C(O)C(O)C1O` (stereo not shown) [Compound 12]: on DENV-2 NS2B-NS3 protease, the inhibition at 10 µM was greater than 20%.
`CCOC(=O)C(CC(C)C)NC(=O)C1OC(OC2C(OC3CCC4(C)C(CCC5(C)C4C(=O)C=C4C6CC(C)(C(=O)O)CCC6(C)CCC45C)C3(C)C)OC(C(=O)NC(CC(C)C)C(=O)OCC)C(O)C2O)C(O)C(O)C1O` (stereo not shown) [Compound 16]: the inhibition at 10 µM on DENV-2 NS2B-NS3 protease was greater than 20%. Besides, the IC50 against DENV-2 NS2B-NS3 protease (setting [3]) is greater than 10 µM.
In the series “MTT cytotoxicity assay”, `CCOC(=O)CCNC(=O)C1OC(OC2C(OC3CCC4(C)C(CCC5(C)C4C(=O)C=C4C6CC(C)(C(=O)O)CCC6(C)CCC45C)C3(C)C)OC(C(=O)NCCC(=O)OCC)C(O)C2O)C(O)C(O)C1O` (stereo not shown) [Compound 17] returned a CC50 at 96 h greater than 100 µM. Also, the EC50 with DENV-2 is 2990 nM; in the series on DENV-2 strain 16681 [1], 4.34 ± 0.008 µM; in the series on DENV-2 strain 16681 [2], 790 nM. The “Selectivity Index (CC50/EC50)” value with DENV-2 strain 16681 [1] is reported as greater than 23. Moreover, the inhibition at 10 µM at DENV-2 NS2B-NS3 protease was greater than 20%.
`COC(=O)CCCCCCNC(=O)C1OC(OC2C(OC3CCC4(C)C(CCC5(C)C4C(=O)C=C4C6CC(C)(C(=O)O)CCC6(C)CCC45C)C3(C)C)OC(C(=O)NCCCCCCC(=O)OC)C(O)C2O)C(O)C(O)C1O` (stereo not shown) [Compound 19] gave a CC50 at 96 h in “MTT cytotoxicity assay” greater than 100 µM. Moreover, the EC50 with DENV-2 turned out to be 1910 nM; with DENV-2 strain 16681 [1], 2.34 ± 0.08 µM; in the series on DENV-2 strain 16681 [2], 430 nM. Further, the “Selectivity Index (CC50/EC50)” value in the series with DENV-2 strain 16681 [1] is greater than 42. Besides, the inhibition at 10 µM on DENV-2 NS2B-NS3 protease was greater than 20%.
In the case of `COC(=O)CCCCCCCCCCNC(=O)C1OC(OC2C(OC3CCC4(C)C(CCC5(C)C4C(=O)C=C4C6CC(C)(C(=O)O)CCC6(C)CCC45C)C3(C)C)OC(C(=O)NCCCCCCCCCCC(=O)OC)C(O)C2O)C(O)C(O)C1O` (stereo not shown) [Compound 20], the inhibition at 10 µM on DENV-2 NS2B-NS3 protease was greater than 20%. For the same molecule, the IC50 at DENV-2 NS2B-NS3 protease (setting [3]) was greater than 10 µM.
With `CN(C)[C@@H]1C(O)=C(C(N)=O)C(=O)[C@@]2(O)C(O)=C3C(=O)c4c(O)cccc4[C@@](C)(O)[C@H]3C[C@@H]12` [T, tetracycline, reference compound], the inhibition at 10 µM at DENV-2 NS2B-NS3 protease was greater than 20%.
